Laboratory results published in patent US20050256181A1, “Treating a viral disorder” (ELIXIR PHARMACEUTICALS, INC., priority 2004, published 2005).

Molecular target: T1, SirT1 (Homo sapiens, UniProt Q96EB6)
T1 sequence (Q96EB6 1-747): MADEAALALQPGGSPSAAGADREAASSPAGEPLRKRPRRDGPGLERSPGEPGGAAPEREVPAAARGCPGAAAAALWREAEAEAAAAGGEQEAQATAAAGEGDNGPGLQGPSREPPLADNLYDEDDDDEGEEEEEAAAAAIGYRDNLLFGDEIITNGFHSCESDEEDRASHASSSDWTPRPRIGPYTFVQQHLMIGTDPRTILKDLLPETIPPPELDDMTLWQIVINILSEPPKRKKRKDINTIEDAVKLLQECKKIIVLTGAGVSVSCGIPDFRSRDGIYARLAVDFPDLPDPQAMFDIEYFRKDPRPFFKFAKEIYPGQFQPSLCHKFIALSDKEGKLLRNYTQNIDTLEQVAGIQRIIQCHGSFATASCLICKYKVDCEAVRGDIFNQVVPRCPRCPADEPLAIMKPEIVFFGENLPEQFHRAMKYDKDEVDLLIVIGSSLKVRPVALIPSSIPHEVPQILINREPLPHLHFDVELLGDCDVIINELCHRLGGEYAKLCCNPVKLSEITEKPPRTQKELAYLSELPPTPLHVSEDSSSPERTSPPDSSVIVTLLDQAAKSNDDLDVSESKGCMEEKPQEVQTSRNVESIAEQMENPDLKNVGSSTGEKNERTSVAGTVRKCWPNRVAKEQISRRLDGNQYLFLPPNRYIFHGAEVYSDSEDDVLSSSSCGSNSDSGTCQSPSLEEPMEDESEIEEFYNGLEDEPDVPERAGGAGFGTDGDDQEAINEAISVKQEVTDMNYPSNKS
Test: SirT1 p53-382 enzymatic deacetylation assay (fluorogenic Fluor-de-Lys principle)
Format: biochemical
From the text: An exemplary assay method includes a 1536 well format of the SirT1 enzymatic assay that is based on the commercial “Fluor-de-Lys” assay principle by Biomol, which is fluorogenic (www.biomol.com/store/Product_Data_PDFs/ak500.pdf). In this assay, deacetylation of the e-amino function of a lysyl residue is coupled to a fluorogenic “development step that is dependent on the unblocked e-amino functionality and generates fluorescent aminomethylcoumarin. Fluorescence can be read on a commercial macroscopic reader.

| Compound | IC50 |
| --- | --- |
| NC(=O)C1CCc2c1[nH]c1ccc(Cl)cc21 (centres unmarked) [Compound 1, 7-Chloro-1,2,3,4-tetrahydro-cyclopenta[b]indole-3-carboxylic acid amide] | < 1 µM |
| NC(=O)C1Cc2c([nH]c3ccccc23)CN1 (centres unmarked) [Compound 2, 2,3,4,9-Tetrahydro-1H-b-carboline-3-carboxylic acid amide] | > 10 µM |
| NC(=O)C1CCc2c([nH]c3ccc(Br)cc23)C1 (centres unmarked) [Compound 3, 6-Bromo-2,3,4,9-tetrahydro-1H-carbazole-2-carboxylic acid amide] | 1 to 10 µM |
| NC(=O)C1CCc2c([nH]c3ccc(Cl)cc23)C1 (centres unmarked) [Compound 9, 6-Chloro-2,3,4,9-tetrahydro-1H-carbazole-2-carboxylic acid amide] | > 10 µM |
| NC(=O)C1CCc2c1[nH]c1ccccc21 (centres unmarked) [Compound 10, 1,2,3,4-Tetrahydro-cyclopenta[b]indole-3-carboxylic acid amide] | 1 to 10 µM |
| O=C(Nc1ccc(Cl)cn1)C1CCCc2c1[nH]c1ccc(Cl)cc21 (centres unmarked) [Compound 11, 6-Chloro-2,3,4,9-tetrahydro-1H-carbazole-1-carboxylic acid (5-chloro-pyridin-2-yl)-amide] | 1 to 10 µM |
| Cc1ccc2[nH]c3c(c2c1)CCCC3(C)C(N)=O (centres unmarked) [Compound 12, 1,6-Dimethyl-2,3,4,9-tetrahydro-1H-carbazole-1-carboxylic acid amide] | > 10 µM |
| NC(=O)C1CCc2c([nH]c3ccc(OC(F)(F)F)cc23)C1 (centres unmarked) [Compound 13, 6-Trifluoromethoxy-2,3,4,9-tetrahydro-1H-carbazole-2-carboxylic acid amide] | > 10 µM |
